From patent EP0233461B2, “4,5,6-Substituted-2-pyrimidinamines” (AMERICAN CYANAMID COMPANY, priority 1986, dated 1987)
Counter-ions that a name gives are not always drawn. Like-named read-outs stand apart in the source and are kept apart here.

Tested on: human basophils
Assay: Inhibition of histamine release from immunologically stimulated human basophils
Assay type: cell-based
Conditions: concentration causing 50% inhibition of histamine release, by linear regression, active if IC50 ≦ 48 µM, read-out: IC50
Procedure: The blood is allowed to sediment at room temperature in two 50 ml polycarbonate centrifuge tubes until a sharp interface develops between the red cells and plasma (60-90 minutes). The plasma (top) layer from each tube is withdrawn by pipet and transferred to respective 50 ml polycarbonate tubes. The plasma is centrifuged for 8 minutes at 110X G at 4°C. The supernatant is carefully poured off as completely as possible and the cell button is resuspended in 2-3 ml of Tris-A buffer using a siliconized Pasteur pipet. The resuspension is accomplished by drawing the liquid gently in an out of the pipet, with the tip below the liquid until an even suspension of cells is obtained. Sufficient Tris-A buffer is then added to bring the volume in the tube to about 45 ml and the tube is centrifuged at 110X G for 8 minutes at 4°C. The supernatant is poured off and the cell button is resuspended and centrifuged as described above. The supernatant is poured off and the cell button is suspended in 2-3 ml of Tris-ACM buffer to make the final volume sufficient to allow addition to the reaction tubes. Reaction tubes containing anti-IgE or antigens, either alone or with test compound in a total volume of 0.2 ml are prepared and placed in a 37°C bath. The cells are warmed to 37°C and frequently swirled to ensure an even suspension, while 1.0 ml aliquots are added to each reaction tube. The tubes are then incubated for 60 minutes at 37°C, vortexing the tubes gently every 15 minutes to keep the cells evenly suspended. When the reaction is complete, the tubes are centrifuged at 4°C for 10 minutes at 1500 rpm to sediment the cells. […] Blanks and totals are included in each test. The blanks have cells and all reagents except antigen or anti-IgE. The totals contain 0.24 ml of 8% perchloric acid, one ml of cells and 0.2 ml of buffer. All samples are then centrifuged to remove the precipitate protein. […] The automated system consists of the following Technicon Autoanalyzer II components Sampler IV, Dual-Speed Proportioning Pump III, Fluoronephelometer with a narrow pass primary filter 7-60 and a secondary filter 3-74, Recorder, and Digital Printer. The manifold used is the one described by Siraganian vide supra, with the following modifications: the dialyzer is omitted; all pumping tubes pass through a single proportioning pump with large capacity and twice the volume of sample is taken for anaylsis. The automated chemistry consists of the following steps: Extraction from alkaline saline into butanol, back extraction into dilute hydrochloric acid by addition of heptane, reaction of histamine with o-phthaldialdehyde (OPT) at high pH and conversion of the OPT adduct to a stable fluorophore with phosphoric acid. The reaction product is then passed through the fluorometer. The full scale response is adjusted to 50 ng histamine base with a threshold sensitivity of approximately 0.5 ng. The instrument blank (wash) is substracted from the ng histamine of each sample. Then the ng histamine of each sample is divided by the mean of the three totals (cells lysed with perchloric acid) to obtain percent release. Control samples contain antigen but no test compound. Blank (or spontaneous release) samples contain neither antigen nor test compound. The mean of the blanks (three replicates) is subtracted from the percent release for controls and test compounds.

SMILES	IC50 (Homo sapiens) [µM]	other results
Cc1cc(-c2ccnc(Nc3cccc(N(C)C)c3)n2)c(C)o1 [N'-[4-(2,5-Dimethyl-3-furanyl)-2-pyrimidinyl]-N,N-dimethyl-1,3-benzenediamine]	< 24	–
Cc1cc(-c2ccnc(Nc3ccc(N(C)C)cc3)n2)c(C)o1 [N'-[4-(2,5-Dimethyl-3-furanyl)-2-pyrimidinyl]-N,N-dimethyl-1,4-benzenediamine]	4.9	–
CN(C)c1ccc(Nc2nccc(-c3cc4ccccc4o3)n2)cc1 [N'-[4-(2-Benzofuranyl)-2-pyrimidinyl]-N,N-dimethyl-1,4-benzenediamine]	5.6	–
CN(C)c1ccc(Nc2nccc(-c3ccco3)n2)cc1 [N'-[4-(2-Furanyl)-2-pyrimidinyl]-N,N-dimethyl-1,4-benzenediamine]	1.9	–
Cc1cnc(Nc2ccc(N(C)C)cc2)nc1-c1ccco1 [N'-[4-(2-Furanyl)-5-methyl-2-pyrimidinyl]-N,N-dimethyl-1,4-benzenediamine]	6.1	–
CCN(CC)c1ccc(Nc2nccc(-c3cccnc3)n2)cc1 [N,N-Diethyl-N'-[4-(3-pyridinyl)-2-pyrimidinyl]-1,4-benzenediamine]	1.7	–
CCN(CC)c1ccc(Nc2nccc(-c3ccncc3)n2)cc1 [N,N-Diethyl-N'-[4-(4-pyridinyl)-2-pyrimidinyl]-1,4-benzenediamine]	1.1	–
CCN(CC)c1ccc(Nc2nccc(-c3ccc(C)o3)n2)cc1 [N,N-Diethyl-N'-[4-(5-methyl-2-fur-anyl)-2-pyrimidinyl]-1,4-benzene-diamine]	28	–
CN(C)c1cccc(Nc2nccc(-c3ccccn3)n2)c1 [N,N-Dimethyl-N'-[4-(2-pyridinyl)-2-pyrimidinyl]-1,3-benzenediamine, dihydrochloride]	–	IC50 (dihydrochloride): 0.5 µM
CN(C)c1cccc(Nc2nccc(-c3ccccn3)n2)c1 [N,N-Dimethyl-N'-[4-(2-pyridinyl)-2-pyrimidinyl]-1,3-benzenediamine]	0.5	–
CN(C)c1cccc(Nc2nccc(-c3ccccn3)n2)c1 [N,N-Dimethyl-N'-[4-(2-pyridinyl)-2-pyriziiidin-yl]-1,3-benzenediamine, trihydrochloride]	–	IC50 (trihydrochloride): 1 µM
CN(C)c1cccc(Nc2nccc(-c3cccs3)n2)c1 [N,N-Dimethyl-N'-[4-(2-thienyl)-2-pyrimidinyl]-1,3-benzenediamine]	2.4	–
CN(C)c1ccc(Nc2nccc(-c3cccs3)n2)cc1 [N,N-Dimethyl-N'-[4-(2-thienyl)-2-pyrimidinyl]-1,4-benzenediamine]	0.6	–
Cc1ccsc1-c1ccnc(Nc2ccc(N(C)C)cc2)n1 [N,N-Dimethyl-N'-[4-(3-methyl-2-thienyl)-2-pyrimidinyl]-1,4-benzenediamine]	1.8	–
CN(C)c1cccc(Nc2nccc(-c3cccnc3)n2)c1 [N,N-Dimethyl-N'-[4-(3-pyridinyl)-2-pyrimidinyl]-1,3-benzenediamine]	1.7	–
CN(C)c1ccc(Nc2nccc(-c3cccnc3)n2)cc1 [N,N-Dimethyl-N'-[4-(3-pyridinyl)-2-pyrimidinyl]-1,4-benzenediamine, trihydrochloride]	–	IC50 (trihydrochloride): 1.5 µM
CN(C)c1ccc(Nc2nccc(-c3cccnc3)n2)cc1 [N,N-Dimethyl-N'-[4-(3-pyridinyl)-2-pyrimidinyl]-1,4-benzenediamine]	–	IC50: 3.7 µM
CN(C)c1ccc(Nc2nccc(-c3ccsc3)n2)cc1 [N,N-Dimethyl-N'-[4-(3-thienyl)-2-pyrimidinyl]-1,4-benzenediamine]	2.1	–
CN(C)c1cccc(Nc2nccc(-c3ccncc3)n2)c1 [N,N-Dimethyl-N'-[4-(4-pyridinyl)-2-pyrimidin-yl]-1,3-benzenediamine, dihydrochloride]	–	IC50 (dihydrochloride): 0.5 µM
CN(C)c1cccc(Nc2nccc(-c3ccncc3)n2)c1 [N,N-Dimethyl-N'-[4-(4-pyridinyl)-2-pyrimidinyl)]-1,3-benzene] [N,N-Dimethyl-N'-[4-(4-pyridinyl)-2-pyrimidinyl)]-1,3-benzenediamine, sulfate]	–	IC50: 1 µM
CN(C)c1cccc(Nc2nccc(-c3ccncc3)n2)c1 [N,N-Dimethyl-N'-[4-(4-pyridinyl)-2-pyrimidinyl]-1,3-benzened] [N,N-Dimethyl-N'-[4-(4-pyridinyl)-2-pyrimidinyl]-1,3-benzenediamine]	–	IC50: 3.5 µM
CN(C)c1ccc(Nc2nccc(-c3ccncc3)n2)cc1 [N,N-Dimethyl-N'-[4-(4-pyridinyl)-2-pyrimidinyl]-1,4-benzenediamine, trihydrochloride]	–	IC50 (trihydrochloride): 0.4 µM
Cc1ccc(-c2ccnc(Nc3cccc(N(C)C)c3)n2)o1 [N,N-Dimethyl-N'-[4-(5-methyl-2-furanyl)-2-pyrimidinyl]-1,3-benzenediamine]	1.6	–
Cc1ccc(-c2ccnc(Nc3cccc(N(C)C)c3)n2)s1 [N,N-Dimethyl-N'-[4-(5-methyl-2-thienyl)-2-pyrimidinyl]-1,3-benzenediamine]	5.7	–
Cc1cccc(Nc2nccc(-c3ccncc3)n2)c1C [N-(2,3-Dimethylphenyl)-4-(4-pyridinyl)-2-pyrimidinamine]	20.2	–
Fc1ccc(Nc2nccc(-c3ccncc3)n2)c(F)c1 [N-(2,4-Difluorophenyl)-4-(4-pyri-dinyl)-2-pyrimidinamine]	< 48	–
Cc1ccc(Nc2nccc(-c3ccncc3)n2)c(C)c1 [N-(2,4-Dimethylphenyl)-4-(4-pyridinyl)-2-pyrimidinamine]	24	–
Cc1ccc(C)c(Nc2nccc(-c3ccccn3)n2)c1 [N-(2,5-Dimethylphenyl)-4-(2-pyridinyl)-2-pyrimidinamine]	< 48	–
Cc1ccc(C)c(Nc2nccc(-c3ccncc3)n2)c1 [N-(2,5-Dimethylphenyl)-4-(4-pyridinyl)-2-pyrimidinamine]	47.1	–
Fc1cccc(F)c1Nc1nccc(-c2ccncc2)n1 [N-(2,6-Difluorophenyl)-4-(4-pyridinyl)-2-pyrimidinamine]	2.9	–

Continued, in another order:

IC50 (Homo sapiens) [µM]	SMILES	other results
6.2	CCN(CC)c1ccc(Nc2nccc(-c3cc4ccccc4o3)n2)cc1 [N'-[4-(2-Benzofuranyl)-2-pyrimidinyl]-N,N-diethyl-1,4-benzenediamine]	–
3.4	CCN(CC)c1ccc(Nc2nccc(-c3ccco3)n2)cc1 [N,N-Diethyl-N'-[4-(2-furanyl)-2-pyrimidinyl]-1,4-benzenediamine]	–
10.1	CCN(CC)c1ccc(Nc2nccc(-c3ccccn3)n2)cc1 [N,N-Diethyl-N'-[4-(2-pyridinyl)-2-pyrimidinyl]-1,4-benzenediamine]	–
40	Cc1cnc(Nc2cccc(N(C)C)c2)nc1-c1ccco1 [N,N-Dimethyl-N'-[4-(2-furanyl)-5-methyl-2-pyrimidinyl]-1,3-benzene-diamine]	–
4.4	CN(C)c1ccc(Nc2nccc(-c3ccccn3)n2)cc1 [N,N-Dimethyl-N'-[4-(2-pyridinyl)-2-pyrimidinyl]-1,4-benzenediamine, dihydrochloride]	–
36.2	CN(C)c1ccccc1Nc1nccc(-c2ccncc2)n1 [N,N-Dimethyl-N'-[4-(4-pyridinyl)-2-pyrimidinyl]-1,2-benzenediamine, fumarate]	–
31.8	Cc1cc(-c2ccccn2)nc(Nc2ccc(N(C)C)cc2)n1 [N,N-Dimethyl-N'-[4-methyl-6-(2-pyridinyl)-2-pyrimidinyl]-1,4-benzenediamine]	–
37.7	Cc1cc(-c2ccncc2)nc(Nc2ccc(N(C)C)cc2)n1 [N,N-Dimethyl-N'-[4-methyl-6-(4-pyridinyl)-2-pyrimidinyl]-1,4-benzenediamine]	–
3	c1ccc(-c2ccnc(Nc3cccc4ccccc34)n2)nc1 [N-1-Naphthalenyl-4-(2-pyridinyl)-2-pyrimidinamine]	–
31.3	c1ccc2c(Nc3nccc(-c4ccncc4)n3)cccc2c1 [N-1-Naphthalenyl-4-(4-pyridinyl)-2-pyrimidinamine]	–
< 48	Fc1ccc(Nc2nccc(-c3cccnc3)n2)c(F)c1 [N-(2,4-Difluorophenyl)-4-(3-pyridinyl)-2-pyrimidinamine]	–
22	Fc1cccc(F)c1Nc1nccc(-c2cccnc2)n1 [N-(2,6-Difluorophenyl)-4-(3-pyridinyl)-2-pyrimidinamine]	–
